No end group written: not given here.
Biological target: T1, GPR7 (Homo sapiens, UniProt P48145)
T1 sequence (P48145 1-328): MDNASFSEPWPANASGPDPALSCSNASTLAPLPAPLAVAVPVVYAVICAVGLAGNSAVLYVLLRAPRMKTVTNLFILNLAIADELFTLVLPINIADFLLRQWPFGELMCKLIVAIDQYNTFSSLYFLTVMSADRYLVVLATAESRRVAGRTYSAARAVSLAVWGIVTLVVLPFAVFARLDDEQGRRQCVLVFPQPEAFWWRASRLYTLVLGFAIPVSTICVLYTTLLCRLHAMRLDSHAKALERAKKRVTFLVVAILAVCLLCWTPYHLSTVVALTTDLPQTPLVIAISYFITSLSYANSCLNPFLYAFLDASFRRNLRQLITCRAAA
Assay: Test on binding inhibition of various peptides against human GPR7-expressed CHO cell membrane fraction
Set-up: The synthetic primers were constructed so as to amplify the gene in the region to be translated to its receptor protein; expressed in transfected cells; host or cells: CHO cells, membrane fraction
Details: iodine-labeled hGPR7L-23; human GPR7-expressed CHO cell membrane fraction 1 μg/well; room temperature 1.5 hour
Method: A mixture of 20 μl of hGPR7L-23 (SEQ ID NO:1) (0.1 mM or 1 mM), 20 μl of lactoperoxidase (Sigma; prepared using 10 μg/ml and 0.1M HEPES-NaOH pH7.0), 20 μl of Idoine-125 (manufactured by Amersham, MS-30, 74 MBq), 20 μl of 0.005% hydrogen peroxide (manufactured by Wako Pure Chemical Industries, Ltd.) was allowed to stand at room temperature for 20 to 30 minutes. Then, 600 μl of 0.1% TFA was added to the mixture. The mixture was applied to reverse phase HPLC for separation and the peaks of the two'labeled products were fractionated in a tube charged with 1 mL of DMSO. Immediately, the fraction was stored on ice and an aliquot was provided for measurement of the radioactivity with a γ-counter. The remaining preparation was dispensed and stored at −30° C.
Human GPR7-expressed CHO cells were cultured in a flask. The flask was washed with 5 mM EDTA/PBS to strip the cells off. The cells were stripped off with 5 mM EDTA/PBS and centrifuged for recovery. The recovered cells were suspended in 25 mL of a buffer for preparing membrane fraction (50 mM Tris-HCl, pH7.5, 5 mM EDTA, 0.1% bovine serum albumin (manufactured by Sigma), 0.5 mM PMSF (manufactured by Wako Pure Chemical Industries, Ltd.), 20 μg/mL leupeptin (manufactured by Peptide Research Institute), 0.1 μg/mL pepstatin A (manufactured by Peptide Research Institute) and 4 μg/mL E-64 (manufactured by Peptide Research Institute)), followed by homogenization on ice using a polytron (12,000 rpm, 15 seconds×3 times). The homogenate was centrifuged at 4° C. under 1,000 g for 10 minutes with a high speed cooling centrifuge to recover the supernatant. […] The pellets were recovered and suspended in a small quantity of the buffer for preparing membrane fractions. […]
Using the assay buffer, the human GPR7-expressed CHO cell membrane fraction was diluted in a final concentration of 1 μg/well and iodine-labeled hGPR7L-23 (SEQ ID NO:1) was diluted in a final concentration of […]. […] After 50 μl of a liquid scintillator was dispensed thereto, the radioactivity was counted on a Top Count (Packard) and the data was analyzed in triplet (FIG. 33). […]

IC50: 0.31 nM
Sequence: WYKPTAGQGYYSVGRAAGLLSGFHRSPYA [Trp1-bovine GPR7L(29)]
